From patent US6465221B1, “Method of producing a taxane-type diterpene” (Mitsui Chemicals, Inc., priority 1994, dated 2002)

Legend:
Assay type in all cases: cell-based
[1] = system: cultured cells of Taxus media; test: Taxus media cell culture with derivatives of jasmonic acids
Procedure: A part of germ of Taxus media which had been previously sterilized with 2% antiformin solution or 70% ethanol solution or the like, was placed on solid Woody Plant Medium (containing gelan gum of 0.25% by weight) to which naphthalenacetic acid had been added to give the concentration of 10^−5 M, and static culture was carried out at 25° C. in a dark place to provide callus of Taxus media. One gram (fresh weight) of the callus was inoculated to an Erlenmeyer flask containing 20 ml of liquid Woody Plant Medium to which above-mentioned component was added to give the same concentration, the and shake culture was carried out with a rotary shaker (amplification of 25 mm, 100 rpm) and the callus was subcultured in every 14 days to accelerate the growth rate thereof.
Two grams (fresh weight) of the cultured cells thus obtained was inoculated to an Erlenmeyer flask containing 20 ml of liquid Woody Plant […], and the culture was further carried out for another 14 days.
After completing the culture, cultured cells of Taxus media were harvested by filtration and lyophilized, then the dry weight was measured to obtain the yield of the cultured cells per liter of the liquid medium.

[2] = system: cultured cells of Taxus baccata LINN; test: Taxus baccata cell culture with coronatines
Procedure: A part of stem of Taxus baccata LINN which had been previously sterilized with 2% antiformin solution or 70% ethanol solution or the like, was placed on solid Woody Plant Medium (containing gelan gum of 0.25% by weight) to which naphthalenacetic acid had been added to give the concentration of 10^−5 M, and static culture was carried out at 25 ° C. in a dark place to provide callus of Taxus baccata LINN. One gram (fresh weight) of the callus was inoculated to an Erlenmeyer flask containing 20 ml of liquid Woody Plant Medium to which the above-mentioned component was added to give the same concentration and shake culture was carried out with a rotary shaker (amplification of 25 mm, 120 rpm) and the callus was subcultured in every 21 days to accelerate the growth rate thereof.
One gram (fresh weight) of the cultured cells thus obtained was inoculated to an Erlenmeyer flask containing 20 ml of liquid Woody Plant Medium to which the above-mentioned component was added to give the same concentration, and shake culture was carried out at 25° C. for 14 days. On the 14th day after starting the culture, 50 μl of coronatine [formula (IV)] was added as coronatines to the culture medium to give the final concentration of 0.001-1000 μM and the culture was further carried out for another 7 days.
After completing the culture, cultured cells of Taxus baccata LINN were harvested by filtration and lyophilized, then the dry weight was measured to obtain the yeild of the cultured cells per liter of the liquid medium.

[3] = system: cultured cells of Taxus baccata LINN; test: Taxus baccata cell culture with cyclic polysaccharides and methyl ester of jasmonic acid
Procedure: […] After completing the culture, cultured cells of Taxus baccata LINN were harvested by filtration and lyophilized, then the dry weight was measured to obtain the yeild thereof per liter of the liquid medium.

[4] = system: cultured cells of Taxus baccata LINN; test: Taxus baccata cell culture with fatty acids or natural oil; conditions: added fatty acid 100 μM; 14 days
Procedure: One gram (fresh weight) of the callus was inoculated to an Erlenmeyer flask containing 20 ml of liquid Woody Plant Medium and shake culture was carried out with a rotary shaker (amplification of 25 mm, 100 rpm) and the callus was subcultured in every 21 days to accelerate the growth rate thereof.

[5] = concentration of derivative of jasmonic acids 100 μM
[6] = concentration of coronatines 1 μM
[7] = cyclic polysaccharide 10 mM + methyl ester of jasmonic acid 100 μM
[8] = methyl ester of jasmonic acid 100 μM, β-cyclodextrin 0 mM
[9] = concentration of derivative of jasmonic acids 0.001 μM
[10] = concentration of derivative of jasmonic acids 0.01 μM
[11] = concentration of derivative of jasmonic acids 0.1 μM
[12] = concentration of derivative of jasmonic acids 1 μM
[13] = concentration of derivative of jasmonic acids 10 μM
[14] = concentration of derivative of jasmonic acids 1000 μM
[15] = concentration of coronatines 10 μM

CC/C=C\CC1C(=NS(N)(=O)=O)CCC1CC(=O)OC (centres unmarked) [Example 39]
yield of cultured cells [1, 5]: 17.1 g/L | yield of taxane-type diterpenes, baccatin III [1, 5]: 19.0 mg/L | yield of taxane-type diterpenes, cephalomannine [1, 5]: 7.5 mg/L | yield of taxane-type diterpenes, taxol [1, 5]: 85.0 mg/L

CC[C@H]1C=C(C(=O)N[C@@]2(C(=O)OC)C[C@@H]2CC)[C@H]2CCC(=O)[C@H]2C1 [Example 9, methyl ester of coronatine]
yield of baccatin III [2, 6]: 4.6 mg/L | yield of cephalomannine [2, 6]: 6.6 mg/L | yield of cultured cells [2, 6]: 19.5 g/L | yield of taxol [2, 6]: 11.3 mg/L

OC[C@H]1O[C@@H]2O[C@H]3[C@H](O)[C@@H](O)[C@@H](O[C@H]4[C@H](O)[C@@H](O)[C@@H](O[C@H]5[C@H](O)[C@@H](O)[C@@H](O[C@H]6[C@H](O)[C@@H](O)[C@@H](O[C@H]7[C@H](O)[C@@H](O)[C@@H](O[C@H]8[C@H](O)[C@@H](O)[C@@H](O[C@H]9[C@H](O)[C@@H](O)[C@@H](O[C@H]1[C@H](O)[C@H]2O)O[C@@H]9CO)O[C@@H]8CO)O[C@@H]7CO)O[C@@H]6CO)O[C@@H]5CO)O[C@@H]4CO)O[C@@H]3CO [Example 24, γ-cyclodextrin]
yield of baccatin III [3, 7]: 85.2 mg/L | yield of cephalomannine [3, 7]: 8.5 mg/L | yield of cultured cells [3, 7]: 17.5 g/L | yield of taxol [3, 7]: 45.2 mg/L

CC/C=C\CC1C(=NNS(C)(=O)=O)CCC1CC(=O)OC (centres unmarked) [Example 37]
yield of cultured cells [1, 5]: 17.1 g/L | yield of taxane-type diterpenes, baccatin III [1, 5]: 15.3 mg/L | yield of taxane-type diterpenes, cephalomannine [1, 5]: 5.9 mg/L | yield of taxane-type diterpenes, taxol [1, 5]: 73.3 mg/L

CCCCCCCC/C=C\CCCCCCCC(=O)O [Example 27, oleic acid]
yield of cells [4]: 20 g/L | yield of taxane-type diterpenes, baccatin III [4]: 2 mg/L | yield of taxane-type diterpenes, cephalomannine [4]: 4 mg/L | yield of taxane-type diterpenes, taxol [4]: 9 mg/L

CCCCC/C=C\C/C=C\CCCCCCCC(=O)O [Example 28, linolic acid]
yield of cells [4]: 20 g/L | yield of taxane-type diterpenes, baccatin III [4]: 2 mg/L | yield of taxane-type diterpenes, cephalomannine [4]: 5 mg/L | yield of taxane-type diterpenes, taxol [4]: 7 mg/L

CCCCC/C=C\C/C=C\C/C=C\C/C=C\CCCC(=O)O [Example 29, arachidonic acid]
yield of cells [4]: 20 g/L | yield of taxane-type diterpenes, baccatin III [4]: 2 mg/L | yield of taxane-type diterpenes, cephalomannine [4]: 3 mg/L | yield of taxane-type diterpenes, taxol [4]: 6 mg/L

CC/C=C\CC1C(=O)CCC1CC(=O)OC (centres unmarked) [Reference Example 1, methyl jasmonate, reference compound]
yield of baccatin III [3, 8]: 49.7 mg/L | yield of cephalomannine [3, 8]: 7.3 mg/L | yield of cultured cells [3, 8]: 15.4 g/L | yield of taxol [3, 8]: 25.9 mg/L | yield of cultured cells [1, 5]: 16.8 g/L | yield of taxane-type diterpenes, baccatin III [1, 5]: 12.1 mg/L | yield of taxane-type diterpenes, cephalomannine [1, 5]: 4.2 mg/L | yield of taxane-type diterpenes, taxol [1, 5]: 48.0 mg/L

OC[C@H]1O[C@@H]2O[C@H]3[C@H](O)[C@@H](O)[C@@H](O[C@H]4[C@H](O)[C@@H](O)[C@@H](O[C@H]5[C@H](O)[C@@H](O)[C@@H](O[C@H]6[C@H](O)[C@@H](O)[C@@H](O[C@H]7[C@H](O)[C@@H](O)[C@@H](O[C@H]1[C@H](O)[C@H]2O)O[C@@H]7CO)O[C@@H]6CO)O[C@@H]5CO)O[C@@H]4CO)O[C@@H]3CO [Example 23, α-cyclodextrin]
yield of baccatin III [3, 7]: 55.7 mg/L | yield of cephalomannine [3, 7]: 7.5 mg/L | yield of cultured cells [3, 7]: 16.6 g/L | yield of taxol [3, 7]: 46.0 mg/L

CC/C=C\CC1/C(=N\OC)CCC1CC(=O)OC (centres unmarked) [Example 33]
yield of cultured cells [1, 5]: 16.1 g/L | yield of taxane-type diterpenes, baccatin III [1, 5]: 18.0 mg/L | yield of taxane-type diterpenes, cephalomannine [1, 5]: 5.2 mg/L | yield of taxane-type diterpenes, taxol [1, 5]: 65.3 mg/L

CC/C=C\CC1C(=NO)CCC1CC(=O)OC (centres unmarked) [Example 32]
yield of cultured cells [1, 9]: 22.0 g/L | yield of taxane-type diterpenes, baccatin III [1, 9]: 6.7 mg/L | yield of taxane-type diterpenes, cephalomannine [1, 9]: 3.2 mg/L | yield of taxane-type diterpenes, taxol [1, 9]: 16.7 mg/L | yield of cultured cells [1, 10]: 21.1 g/L | yield of taxane-type diterpenes, baccatin III [1, 10]: 6.8 mg/L | yield of taxane-type diterpenes, cephalomannine [1, 10]: 3.6 mg/L | yield of taxane-type diterpenes, taxol [1, 10]: 20.2 mg/L | yield of cultured cells [1, 11]: 20.2 g/L | yield of taxane-type diterpenes, baccatin III [1, 11]: 7.5 mg/L | yield of taxane-type diterpenes, cephalomannine [1, 11]: 4.0 mg/L | yield of taxane-type diterpenes, taxol [1, 11]: 24.1 mg/L | yield of cultured cells [1, 12]: 19.5 g/L | yield of taxane-type diterpenes, baccatin III [1, 12]: 8.5 mg/L | yield of taxane-type diterpenes, cephalomannine [1, 12]: 4.2 mg/L | yield of taxane-type diterpenes, taxol [1, 12]: 34.5 mg/L | yield of cultured cells [1, 13]: 18.3 g/L | yield of taxane-type diterpenes, baccatin III [1, 13]: 13.5 mg/L | yield of taxane-type diterpenes, cephalomannine [1, 13]: 6.3 mg/L | yield of taxane-type diterpenes, taxol [1, 13]: 56.2 mg/L | yield of cultured cells [1, 5]: 16.4 g/L | yield of taxane-type diterpenes, baccatin III [1, 5]: 20.1 mg/L | yield of taxane-type diterpenes, cephalomannine [1, 5]: 9.2 mg/L | yield of taxane-type diterpenes, taxol [1, 5]: 78.0 mg/L | yield of cultured cells [1, 14]: 14.0 g/L | yield of taxane-type diterpenes, baccatin III [1, 14]: 9.3 mg/L | yield of taxane-type diterpenes, cephalomannine [1, 14]: 3.5 mg/L | yield of taxane-type diterpenes, taxol [1, 14]: 17.2 mg/L

CC/C=C\CC1/C(=N\NC(N)=O)CCC1CC(=O)OC (centres unmarked) [Example 35]
yield of cultured cells [1, 5]: 15.3 g/L | yield of taxane-type diterpenes, baccatin III [1, 5]: 17.2 mg/L | yield of taxane-type diterpenes, cephalomannine [1, 5]: 5.0 mg/L | yield of taxane-type diterpenes, taxol [1, 5]: 56.3 mg/L

cyclofructan [Example 25]
yield of baccatin III [3, 7]: 51.4 mg/L | yield of cephalomannine [3, 7]: 9.1 mg/L | yield of cultured cells [3, 7]: 17.9 g/L | yield of taxol [3, 7]: 48.9 mg/L

CC[C@H]1C=C(C(=O)OC)[C@H]2CCC(=O)[C@H]2C1 [Example 11, methyl ester of coronafacic acid]
yield of baccatin III [2, 15]: 8.4 mg/L | yield of cephalomannine [2, 15]: 5.1 mg/L | yield of cultured cells [2, 15]: 19.2 g/L

CCC1C=C(C(=O)NC(C(=O)O)C(C)C)C2CCC(=O)C2C1 (centres unmarked) [Example 8, N-coronafacoylvaline]
yield of baccatin III [2, 6]: 25.0 mg/L | yield of cephalomannine [2, 6]: 9.2 mg/L | yield of cultured cells [2, 6]: 18.1 g/L | yield of taxol [2, 6]: 51.1 mg/L

CC/C=C\CC1C(=NC#N)CCC1CC(=O)OC (centres unmarked) [Example 38]
yield of cultured cells [1, 5]: 14.3 g/L | yield of taxane-type diterpenes, baccatin III [1, 5]: 14.5 mg/L | yield of taxane-type diterpenes, cephalomannine [1, 5]: 5.0 mg/L | yield of taxane-type diterpenes, taxol [1, 5]: 82.9 mg/L

CC/C=C\CC1/C(=N\NC=O)CCC1CC(=O)OC (centres unmarked) [Example 36]
yield of cultured cells [1, 5]: 17.2 g/L | yield of taxane-type diterpenes, baccatin III [1, 5]: 18.5 mg/L | yield of taxane-type diterpenes, cephalomannine [1, 5]: 6.2 mg/L | yield of taxane-type diterpenes, taxol [1, 5]: 79.5 mg/L

CC/C=C\CC1C(=NN)CCC1CC(=O)OC (centres unmarked) [Example 34]
yield of cultured cells [1, 5]: 16.7 g/L | yield of taxane-type diterpenes, baccatin III [1, 5]: 16.5 mg/L | yield of taxane-type diterpenes, cephalomannine [1, 5]: 6.6 mg/L | yield of taxane-type diterpenes, taxol [1, 5]: 55.0 mg/L

CCC1C=C(C(=O)O)C2CCC(=O)C2C1 (centres unmarked) [Example 10, coronafacic acid]
yield of baccatin III [2, 15]: 12.4 mg/L | yield of cephalomannine [2, 15]: 3.0 mg/L | yield of cultured cells [2, 15]: 18.6 g/L | yield of taxol [2, 15]: 6.2 mg/L

CC/C=C\CC1C(CC(=O)OC)CCC1NO (centres unmarked) [Example 40]
yield of cultured cells [1, 5]: 16.2 g/L | yield of taxane-type diterpenes, baccatin III [1, 5]: 14.2 mg/L | yield of taxane-type diterpenes, cephalomannine [1, 5]: 5.5 mg/L | yield of taxane-type diterpenes, taxol [1, 5]: 73.3 mg/L
